Reference: US8778913B2, “Antimicrobial compositions for treating microbial infections” (priority 2006, dated 2014)
Where two headings read alike, the source gives them in different places.

What was measured:
NCI-H460 = test: Growth of human cell line NCI-H460; type: cell-based
Procedure: (§1) Inhibition of staphyloxanthin biosynthesis by formula III could represent a purely virulence factor-based therapy for S. aureus infection. […] However, after incubation with 100 μM formula III, the resulting non-pigmented S. aureus were ˜15-fold more susceptible to killing by 1.5% hydrogen peroxide and ˜4-fold less able to survive in freshly isolated human whole blood than were normally pigmented S. aureus treated with PBS control. As expected, formula III had no effect on the growth of three human cell lines (MCF-7, NCI-H460 and SF-268) since there only cholesterol biosynthesis is targeted, and cholesterol is generally abundant in serum (or diet).

S. aureus [1] = test: Systemic (intraperitoneal) S. aureus challenge in mice; type: in vivo, mouse
Procedure: Here cfu counts are measured in the kidneys.
0/6 mice treated with the compound of Formula III had detectable bacteria in either organ.
Given the in vitro abilities of formula III treatment to increase S. aureus susceptibility to oxidants and blood (neutrophil-mediated) clearance, in vivo testing was performed. Under intraperitoneal challenge one group of mice (n=14) was treated with […] b.i.d. (days −1, 0, 1 and 2), and a second group (n=13) with equivalent volume injections of PBS control.

[2] = test system: staphyloxanthin biosynthesis; test: S. aureus pigment (staphyloxanthin) formation; type: cell-based, Staphylococcus aureus; conditions: for IC50: Staphylococcus aureus
Text: (§2) Wild-type S. aureus strain (Pig1), isolated from the skin of a child with atopic dermatitis. Streptococcus pyogenes strain 5448 is a well-characterized serotype M1T1 clinical isolate. CD1 and C57Bl/6 mice were purchased from Charles River. The gp91^Phos−/− mice were bred at the Veteran's Administration Medical Center, San Diego and maintained on trimethoprim/sulfamethoxazole prophylaxis until 3 d prior to experiments. S. aureus and S. pyogenes were propagated in Todd-Hewitt broth (THB) or on THB agar (Difco, Detroit, Mich.). Unless otherwise indicated, all experiments were performed with bacteria derived from S. aureus 36-48 h stationary phase cultures or S. pyogenes 24 h stationary phase cultures, a point when pigmentation phenotypes were readily apparent.
A series of known SQS inhibitors were tested for inhibition of staphyloxanthin biosynthesis.

MCF-7 = test: Growth of human cell line MCF-7; type: cell-based
Procedure: as §1

SF-268 = test: Growth of human cell line SF-268; type: cell-based
Procedure: as §1

S. aureus [3] = test: S. aureus growth inhibition in culture; type: cell-based, Staphylococcus aureus
Procedure: The compound of Formula III was prepared as described in Magnin et al., α-Phosphonosulfonic acids: Potent and selective inhibitors of squalene synthase, J. Med. Chem. 39 (1996) 657-660, and tested in S. aureus growth inhibition and in pigment formation.
as §2
Inhibition of staphyloxanthin biosynthesis by formula III could represent a purely virulence factor-based therapy for S. aureus infection. […]

S. aureus [4] = test: In vivo mouse model of S. aureus skin infection
Procedure: Ten to 16 week old CD-1 or gp91^Phox−/− mice were injected subcutaneously in one flank (chosen randomly) with the bacterial test strain, and simultaneously in the opposite flank with a different strain for direct comparison. Bacterial cultures were washed, diluted and resuspended in PBS mixed 1:1 with sterile Cytodex beads (Amersham) at the specified inoculum, following an established protocol for generating localized S. aureus and S. pyogenes subcutaneous infection. Lesion size, as assessed by the maximal length×width of the developing ulcers, was recorded daily. Cumulative lesion size represents the total sum of lesion sizes from all animals in each treatment group on a given day. At day 8 (S. aureus) or day 5 (S. pyogenes), animals were euthanized, skin lesions excised, homogenized in PBS, and plated on THA for quantitative culture.

[5] = molecular target: T1, CrtM (dehydrosqualene synthase) (Staphylococcus aureus, UniProt A9JQL9); test: Recombinant CrtM enzyme inhibition; type: biochemical, S. aureus
T1 construct: made in house; host or cells: E. coli
T1 sequence (A9JQL9 1-287): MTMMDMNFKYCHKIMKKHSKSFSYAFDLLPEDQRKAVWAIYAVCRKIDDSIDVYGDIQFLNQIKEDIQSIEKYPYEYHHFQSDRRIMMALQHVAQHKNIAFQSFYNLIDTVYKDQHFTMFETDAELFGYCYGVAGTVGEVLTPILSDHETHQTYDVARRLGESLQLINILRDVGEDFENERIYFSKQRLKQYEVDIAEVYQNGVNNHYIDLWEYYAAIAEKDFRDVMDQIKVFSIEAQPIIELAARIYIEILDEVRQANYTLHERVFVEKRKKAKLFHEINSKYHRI
Procedure: A series of known SQS inhibitors were tested for inhibition of staphyloxanthin biosynthesis. […] Since Formula III (and its analogs) have been advanced through Phase II human clinical trials as cholesterol-lowering agents, the agent is clearly of potential interest as a new lead compound inhibiting staphyloxanthin virulence factor formation in S. aureus.

S. aureus [6] = test: Hydrogen peroxide susceptibility assay; type: cell-based, Staphylococcus aureus; conditions: after incubation with 100 μM; vs PBS control
Procedure: (§3) Tests for susceptibility to oxidants were performed either in PBS (S. aureus) or THB (S. pyogenes). Hydrogen peroxide (H2O2) was added to 1.5% final concentration, […] bacteria incubated at 37° C. for 1 h, then 1,000 U/ml of catalase (Sigma) added to quench residual H2O2. Dilutions were plated on THA for enumeration of surviving cfu. For the singlet oxygen assay, 10^8 S. aureus or 4×10^8 S. pyogenes were incubated at 37° C. in individual wells of a 24-well culture plate in the presence or absence of 1-6 μg/ml methylene blue and situated exactly 10 cm from a 100-watt light source. Bacterial viability was assessed after 1-3 h by plating dilutions on THA.

S. aureus [7] = test: Whole blood killing assay; type: cell-based, Staphylococcus aureus
Procedure: Bacteria were washed twice in PBS, diluted to an inoculum of 10^4 cfu in 25 μl PBS, and mixed with 75 μl of freshly drawn human or mouse blood in heparinized tubes. The tubes were incubated at 37° C. for 4 h with agitation, at which time dilutions were plated on THA for enumeration of surviving cfu.

[8] = test system: staphyloxanthin biosynthesis; conditions: earlier report; cited from earlier work
S. aureus [9] = test: Singlet oxygen susceptibility assay; type: cell-based, Staphylococcus aureus
Procedure: as §3

O=P([O-])([O-])C(CCCc1cccc(Oc2ccccc2)c1)S(=O)(=O)[O-].[K+].[K+].[K+] (racemic) [Formula III]
effect on growth of human cell line (NCI-H460): no effect
mice with cfus below the detection threshold (kidneys) (S. aureus [1]; 0.5 mg b.i.d. days −1, 0, 1, 2, sacrifice at 72 h): 8/13
S. aureus bacterial counts in the kidneys vs control group (S. aureus [1]; 0.5 mg b.i.d. days −1, 0, 1, 2, sacrifice at 72 h, P<0.001): significantly lower
mice with detectable bacteria in the spleen (S. aureus [1]; after 4 days (FIG. 12A)): 0/6
mice with detectable bacteria in the kidneys (S. aureus [1]; after 4 days (FIG. 12B)): 0/6
effect on pigment formation [2]: potent effect
IC50 ([2]; 48 h, after 2 days at 37° C. with shaking (Table 1 title), read-out: IC50 (concentration for 50% pigment formation)): ~2000 nM
IC50 ([2]; read-out: IC50, inhibition of staphyloxanthin biosynthesis): ~1000 nM
effect on growth of human cell line (MCF-7): no effect
effect on growth of human cell line (SF-268): no effect
effect on cell growth (S. aureus [3]; S. aureus growth inhibition): no detectable effect
effect on S. aureus growth characteristics or survival in culture (S. aureus [3]; up to 2 mM, through 48 hr): did not affect
lesion size (S. aureus [4]; 200 μM (FIG. 9A)): major decrease
ill effects in mice (S. aureus [4]; 200 μM or 1000 μM): no apparent ill effects
lesion size (S. aureus [4]; 1000 μM (FIG. 9B)): major decrease
IC50 ([5]; S. aureus enzyme expressed in E. coli): 600 nM
Ki ([5]; corresponding to the IC50): ~1.5 nM
increase in susceptibility to killing by 1.5% hydrogen peroxide (S. aureus [6]): ~15 fold
ED50, whole blood killing of S. aureus (S. aureus [7]; FIG. 8): ~20000 nM
decrease in ability to survive in freshly isolated human whole blood (S. aureus [7]; after incubation with 100 μM, vs PBS control): ~4 fold
enhancement in whole blood killing of S. aureus (S. aureus [7]; at 40 μM (FIG. 8)): ~3 fold

CCCC(C(=O)OCCN(CC)CC)(c1ccccc1)c1ccccc1 [SKF 525-A, 2-diethylaminoethyl-2,2-diphenyl-valerate, reference compound]
pigment formation in S. aureus (previously shown) [8]: inhibit pigment formation
pigment production in WT S. aureus ([2]; WT strain grown in presence of agent (FIG. 4a)): dose-dependent decrease
susceptibility to singlet oxygen killing (S. aureus [9]; WT S. aureus (FIG. 4b)): dose-dependent increase
effect on oxidant susceptibility of ΔCrtM mutant (S. aureus [9]; ΔCrtM mutant control): no significant effects
ability of WT S. aureus to survive in human whole blood (S. aureus [7]; WT S. aureus (FIG. 4c)): decrease
effect on blood survival of ΔCrtM mutant (S. aureus [7]; ΔCrtM mutant control): no significant effects
